Assay results from PubChem BioAssay AID1963825 (Molecular Pharmacology Branch, DTP, NCI, 2024).

Assay: Anticancer human tumor 997537-175-T-J1-PDC patient-derived colon adenocarcinoma cell line growth inhibition [POLQ]
Conditions: 997537-175-T-J1-PDC complex spheroid viability, combination with POLQ inhibitors; for IC50: curve of first compound; for viability, T/C: stronger effect = lower value
How it was run: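 Patient-derived tumour cells were co-cultured with HUVEC and mesenchymal stem cells as multicellular spheroids at 37 °C. They were treated with POLQ inhibitors (novobiocin, ART-558, RP6685) alone or combined with other agents. Top concentrations were at or near clinical Cmax (otherwise 10 microM; SN-38 at 1 microM), decreasing in half-log steps.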

[1] = second compound 0.0316 µM, first compound 0.0316 µM
[2] = second compound 0.0316 µM, first compound 0.1 µM
[3] = second compound 0.0316 µM, first compound 0.316 µM
[4] = second compound 0.0316 µM, first compound 1 µM
[5] = second compound 0.1 µM, first compound 0.0316 µM
[6] = second compound 0.1 µM, first compound 0.1 µM
[7] = second compound 0.1 µM, first compound 0.316 µM
[8] = second compound 0.1 µM, first compound 1 µM
[9] = second compound 0.316 µM, first compound 0.0316 µM
[10] = second compound 0.316 µM, first compound 0.1 µM
[11] = second compound 0.316 µM, first compound 0.316 µM
[12] = second compound 0.316 µM, first compound 1 µM
[13] = second compound 1 µM, first compound 0.0316 µM
[14] = second compound 1 µM, first compound 0.1 µM
[15] = second compound 1 µM, first compound 0.316 µM
[16] = second compound 1 µM, first compound 1 µM
[17] = second compound 3.16 µM, first compound 0.0316 µM
[18] = second compound 3.16 µM, first compound 0.1 µM
[19] = second compound 3.16 µM, first compound 0.316 µM
[20] = second compound 3.16 µM, first compound 1 µM
[21] = second compound 10 µM, first compound 0.0316 µM
[22] = second compound 10 µM, first compound 0.1 µM
[23] = second compound 10 µM, first compound 0.316 µM
[24] = second compound 10 µM, first compound 1 µM
[25] = second compound 0.0316 µM, first compound 3.16 µM
[26] = second compound 0.0316 µM, first compound 10 µM
[27] = second compound 0.1 µM, first compound 3.16 µM
[28] = second compound 0.1 µM, first compound 10 µM
[29] = second compound 0.316 µM, first compound 3.16 µM
[30] = second compound 0.316 µM, first compound 10 µM
[31] = second compound 1 µM, first compound 3.16 µM
[32] = second compound 1 µM, first compound 10 µM
[33] = second compound 3.16 µM, first compound 3.16 µM
[34] = second compound 3.16 µM, first compound 10 µM
[35] = second compound 10 µM, first compound 3.16 µM
[36] = second compound 10 µM, first compound 10 µM
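Note: luminescence signal used as a surrogate for viable cells; spheroids exposed to drugs for seven days before readout.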

SMILES: CCc1c2c(nc3ccc(O)cc13)-c1cc3c(c(=O)n1C2)COC(=O)[C@]3(O)CC + COC1C(OC(N)=O)C(O)C(Oc2ccc3c(O)c(NC(=O)c4ccc(O)c(CC=C(C)C)c4)c(=O)oc3c2C)OC1(C)C
- IC50 (second compound 0.0316 µM): 0.0203 µM
- IC50 (second compound 0.1 µM): 0.0194 µM
- IC50 (second compound 0.316 µM): 0.0197 µM
- IC50 (second compound 1 µM): 0.0153 µM
- IC50 (second compound 3.16 µM): 0.0186 µM
- IC50 (second compound 10 µM): 0.0131 µM
- viability, T/C (second compound 0.0316 µM, first compound 0.00316 µM): 73.2%
- viability, T/C (second compound 0.0316 µM, first compound 0.01 µM): 79.5%
- viability, T/C [1]: 33.5%
- viability, T/C [2]: 22.7%
- viability, T/C [3]: 4.91%
- viability, T/C [4]: 4.67%
- viability, T/C (second compound 0.1 µM, first compound 0.00316 µM): 72.3%
- viability, T/C (second compound 0.1 µM, first compound 0.01 µM): 74.8%
- viability, T/C [5]: 32.9%
- viability, T/C [6]: 14.3%
- viability, T/C [7]: 7.35%
- viability, T/C [8]: 6.22%
- viability, T/C (second compound 0.316 µM, first compound 0.00316 µM): 78%
- viability, T/C (second compound 0.316 µM, first compound 0.01 µM): 73%
- viability, T/C [9]: 33.8%
- viability, T/C [10]: 14.3%
- viability, T/C [11]: 6.7%
- viability, T/C [12]: 6.93%
- viability, T/C (second compound 1 µM, first compound 0.00316 µM): 88.8%
- viability, T/C (second compound 1 µM, first compound 0.01 µM): 60.1%
- viability, T/C [13]: 32.1%
- viability, T/C [14]: 19.2%
- viability, T/C [15]: 6.28%
- viability, T/C [16]: 5.11%
- viability, T/C (second compound 3.16 µM, first compound 0.00316 µM): 88.9%
- viability, T/C (second compound 3.16 µM, first compound 0.01 µM): 74%
- viability, T/C [17]: 29.4%
- viability, T/C [18]: 11.4%
- viability, T/C [19]: 7.04%
- viability, T/C [20]: 7.5%
- viability, T/C (second compound 10 µM, first compound 0.00316 µM): 63.9%
- viability, T/C (second compound 10 µM, first compound 0.01 µM): 57.9%
- viability, T/C [21]: 26.3%
- viability, T/C [22]: 15%
- viability, T/C [23]: 6.46%
- viability, T/C [24]: 9.61%

SMILES: CC1COCCN1c1cc(C2(S(C)(=N)=O)CC2)nc(-c2ccnc3[nH]ccc23)n1 (stereo not drawn) + Nc1ccc(C#CCN(C(=O)Cc2ncc(C(F)(F)F)cc2C(F)(F)F)c2ccc(F)cc2)nn1
- IC50 (second compound 0.0316 µM): > 10 µM
- IC50 (second compound 0.1 µM): 7.51 µM
- IC50 (second compound 0.316 µM): > 10 µM
- IC50 (second compound 1 µM): > 10 µM
- IC50 (second compound 3.16 µM): 6.51 µM
- IC50 (second compound 10 µM): > 10 µM
- viability, T/C [1]: 115%
- viability, T/C [2]: 107%
- viability, T/C [3]: 86.7%
- viability, T/C [4]: 96.5%
- viability, T/C [25]: 87.1%
- viability, T/C [26]: 57.2%
- viability, T/C [5]: 105%
- viability, T/C [6]: 105%
- viability, T/C [7]: 81.3%
- viability, T/C [8]: 95.4%
- viability, T/C [27]: 65.5%
- viability, T/C [28]: 43.9%
- viability, T/C [9]: 109%
- viability, T/C [10]: 103%
- viability, T/C [11]: 97.5%
- viability, T/C [12]: 79.2%
- viability, T/C [29]: 79.4%
- viability, T/C [30]: 71.7%
- viability, T/C [13]: 97.8%
- viability, T/C [14]: 108%
- viability, T/C [15]: 105%
- viability, T/C [16]: 81%
- viability, T/C [31]: 63.9%
- viability, T/C [32]: 52%
- viability, T/C [17]: 93.9%
- viability, T/C [18]: 91.2%
- viability, T/C [19]: 107%
- viability, T/C [20]: 92.4%
- viability, T/C [33]: 66.9%
- viability, T/C [34]: 40%
- viability, T/C [21]: 94.9%
- viability, T/C [22]: 94.6%
- viability, T/C [23]: 94.6%
- viability, T/C [24]: 81.7%
- viability, T/C [35]: 47%
- viability, T/C [36]: 55.8%

SMILES: CCc1cc2c(N3CCc4c(cc(Cn5ccnc5)cc4-c4cn(C)nc4C(F)(F)F)C3=O)cc(C)nc2c(OC)n1 + COC1C(OC(N)=O)C(O)C(Oc2ccc3c(O)c(NC(=O)c4ccc(O)c(CC=C(C)C)c4)c(=O)oc3c2C)OC1(C)C
- IC50 (second compound 0.0316 µM): > 10 µM
- IC50 (second compound 0.1 µM): 6.36 µM
- IC50 (second compound 0.316 µM): > 10 µM
- IC50 (second compound 1 µM): > 10 µM
- IC50 (second compound 3.16 µM): > 10 µM
- IC50 (second compound 10 µM): > 10 µM
- viability, T/C [1]: 95.1%
- viability, T/C [2]: 123%
- viability, T/C [3]: 88.9%
- viability, T/C [4]: 95.2%
- viability, T/C [25]: 69.1%
- viability, T/C [26]: 55.2%
- viability, T/C [5]: 106%
- viability, T/C [6]: 93.3%
- viability, T/C [7]: 75.1%
- viability, T/C [8]: 68.8%
- viability, T/C [27]: 70%
- viability, T/C [28]: 39.1%
- viability, T/C [9]: 110%
- viability, T/C [10]: 107%
- viability, T/C [11]: 93.5%
- viability, T/C [12]: 80.7%
- viability, T/C [29]: 76.1%
- viability, T/C [30]: 66.7%
- viability, T/C [13]: 102%
- viability, T/C [14]: 114%
- viability, T/C [15]: 86.4%
- viability, T/C [16]: 61.1%
- viability, T/C [31]: 64.2%
- viability, T/C [32]: 60.1%
- viability, T/C [17]: 113%
- viability, T/C [18]: 104%
- viability, T/C [19]: 100%
- viability, T/C [20]: 68.6%
- viability, T/C [33]: 49.8%
- viability, T/C [34]: 65.6%
- viability, T/C [21]: 92.1%
- viability, T/C [22]: 88.7%
- viability, T/C [23]: 74.3%
- viability, T/C [24]: 66.9%
- viability, T/C [35]: 54.5%
- viability, T/C [36]: 59.8%

SMILES: O=C(c1cc(Cc2n[nH]c(=O)c3ccccc23)ccc1F)N1CCN(C(=O)C2CC2)CC1 + Cc1cccc(N(C)C(=O)C2C(O)CCN2c2nc(C)cc(C(F)(F)F)c2C#N)c1
- IC50 (second compound 0.0316 µM): > 10 µM
- IC50 (second compound 0.1 µM): > 10 µM
- IC50 (second compound 0.316 µM): > 10 µM
- IC50 (second compound 1 µM): > 10 µM
- IC50 (second compound 3.16 µM): > 10 µM
- IC50 (second compound 10 µM): > 10 µM
- viability, T/C [1]: 107%
- viability, T/C [2]: 97.5%
- viability, T/C [3]: 94.8%
- viability, T/C [4]: 92.3%
- viability, T/C [25]: 102%
- viability, T/C [26]: 103%
- viability, T/C [5]: 91.9%
- viability, T/C [6]: 108%
- viability, T/C [7]: 102%
- viability, T/C [8]: 105%
- viability, T/C [27]: 101%
- viability, T/C [28]: 86.2%
- viability, T/C [9]: 107%
- viability, T/C [10]: 105%
- viability, T/C [11]: 109%
- viability, T/C [12]: 99%
- viability, T/C [29]: 118%
- viability, T/C [30]: 110%
- viability, T/C [13]: 99.1%
- viability, T/C [14]: 102%
- viability, T/C [15]: 109%
- viability, T/C [16]: 97.1%
- viability, T/C [31]: 100%
- viability, T/C [32]: 87.5%
- viability, T/C [17]: 101%
- viability, T/C [18]: 108%
- viability, T/C [19]: 92.2%
- viability, T/C [20]: 92.1%
- viability, T/C [33]: 97.5%
- viability, T/C [34]: 103%
- viability, T/C [21]: 99.3%
- viability, T/C [22]: 87.3%
- viability, T/C [23]: 91.1%
- viability, T/C [24]: 97%
- viability, T/C [35]: 87.1%
- viability, T/C [36]: 96.4%
